Test [1] addresses T1, Avi-KRAS G12D (1-169) GppNHp/RAF1 RBD-3×FLAG (52-151) (Homo sapiens, UniProt P01116, G12D).
T1 construct: Avi-KRAS G12D (1-169) GppNHp
As to the kind of experiment: HTRF Raf1-KRAS G12D-GppNHp disruption assay. Type of test: biochemical. Particulars: 1 h incubation. The procedure:
(§1) The HTRF assay employed the following protocol:
(§2) Compounds were dispensed in assay plate (384-well, Grenier Bione #784075) using Echo (model 555) with dose response settings: 200 nL final volume, titration from 100 μM as a 10-point dilution series. Protein mix was prepared in assay buffer, and dispensed on plates, 10 μL per well, then incubated for 1 h at room temperature, with 700 rpm shaking. Reagents mix was prepared and dispensed on plates, 10 μL per well, then incubated for 1 h at room temperature, with 700 rpm shaking.
(§3) Plates were analyzed on an Envision plate reader using the following setting: Excitation 320 nm, Bandwidth […]; Emission 615 nm, Bandwidth […], Gain 100%, Flashes 100, Lag 60 μs. Data was reported as percentage of activity, with DMSO as 100%. Data was plotted and analyzed using Prism 8.

The target in test [2] is T2, Avi-KRAS G12D/Q25A (1-169) GppNHp/3×FLAG-PI3KCA (157-299) (Homo sapiens, UniProt P01116, G12D/Q25A).
T2 construct: Avi-KRAS G12D/Q25A (1-169) GppNHp
Briefly: HTRF PI3KCA-KRAS G12D/Q25A-GppNHp disruption assay. The test is classed as biochemical. Particulars: 1 h incubation. On the procedure:
as §1, §2, §3
On the technique in general: In TR-FRET formats the signal depends on donor and acceptor labels being close together.

pIC50: −log10 of the molar value.

The pIC50 is the IC50 on a negative log10 scale, so that one unit is a factor of ten.

T1 sequence (P01116 1-169 isoform P01116-2 G12D limits assumed): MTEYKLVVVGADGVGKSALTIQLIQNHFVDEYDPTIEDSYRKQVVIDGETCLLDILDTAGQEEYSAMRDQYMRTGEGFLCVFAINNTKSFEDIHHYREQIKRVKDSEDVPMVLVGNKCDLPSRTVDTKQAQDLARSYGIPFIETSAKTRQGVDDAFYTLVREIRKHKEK
T2 sequence (P01116 1-169 isoform P01116-2 G12D/Q25A limits assumed): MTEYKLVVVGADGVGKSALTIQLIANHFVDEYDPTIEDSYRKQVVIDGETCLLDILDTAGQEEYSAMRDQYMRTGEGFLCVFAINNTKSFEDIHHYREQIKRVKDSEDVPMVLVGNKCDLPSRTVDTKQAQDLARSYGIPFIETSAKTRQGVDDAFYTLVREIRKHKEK

Regarding `N#CCCN1CCC[C@H]1COc1nc(NC2CNC2)c2cc(Cl)c(-c3ccc(F)c4sc(N)nc34)c(F)c2n1` [Compound 178], the pIC50 in test [1] and in test [2] was 4.52 to 5.00 in each case.
Take `CN1C[C@H](F)C[C@H]1COc1nc(NC2CN(C(=O)CN)C2)c2cc(-c3ccoc3)c(-c3ccc(F)c4sc(N)nc34)c(F)c2n1` [Compound 137]: the values for the pIC50 in test [1] and in test [2] were 5.00 to 6.00 and 4.52 to 5.00, respectively.
On to `CN1CCC[C@H]1COc1nc(N2CCNCC2)c2cc(-c3ccoc3)c(-c3ccc(F)c4sc(N)nc34)c(F)c2n1` [Compound 143, 7-fluoro-4-(8-fluoro-6-(furan-3-yl)-2-(((S)-1-methylpyrrolidin-2-yl)methoxy)-4-(piperazin-1-yl)quinazolin-7-yl)benzo[d]thiazol-2-amine], for which the pIC50 in test [1] and in test [2] was 4.52 to 5.00 each time.
Regarding `CN(c1nc(OC[C@@H]2CC(F)(F)CN2C)nc2c(F)c(-c3ccc(F)c4sc(N)nc34)c(C(F)(F)F)cc12)C1CNC1` [Compound 204], the pIC50 in test [1] and in test [2] was 4.52 to 5.00 throughout.
With `CN1CCC[C@H]1COc1nc(N2CC(N)C2)c2cc(Cl)c(-c3ccc(F)c4sc(N)nc34)c(F)c2n1` [Compound 112], the pIC50 in test [1] and in test [2] was 5.00 to 6.00 throughout.
In the case of `Nc1nc2c(-c3c(Cl)cc4c(N5CC6CNC(C6)C5)ncnc4c3F)ccc(F)c2s1` (centres unmarked) [Compound 243], the pIC50 in test [1] and in test [2] was 4.52 to 5.00 in each case.
In the case of `Nc1nc2c(-c3c(-c4ccoc4)cc4c(N5CC6CCC(C5)N6)nc(OC[C@@]56CCCN5C[C@H](F)C6)nc4c3F)ccc(F)c2s1` [Compound 237], the figures for the pIC50 in test [1] and in test [2] were 6.00 to 7.00 and 5.00 to 6.00, respectively.
Take `CC(F)(F)c1cc2c(N3CCNCC3)nc(OCC34CCCN3CCC4)nc2c(F)c1-c1ccc(F)c2sc(N)nc12` [Compound 295, 4-(6-(1,1-difluoroethyl)-8-fluoro-4-(piperazin-1-yl)-2-((tetrahydro-1H-pyrrolizin-7a(5H)-yl)methoxy)quinazolin-7-yl)-7-fluorobenzo[d]thiazol-2-amine]: the pIC50 in test [1] and in test [2] was 5.00 to 6.00 throughout.
In the case of `Nc1nc2c(-c3c(C(F)(F)F)cc4c(N5CCNCC5)nc(OCC56CCCN5CCC6)nc4c3F)ccc(F)c2o1` [Compound 189], the pIC50 in test [1] and in test [2] was 5.00 to 6.00 throughout.
As for `CN1CCC[C@H]1COc1nc(N[C@H]2C[C@H](N)C2)c2cc(Cl)c(-c3ccc(F)c4sc(N)nc34)c(F)c2n1` (atropisomer, axis not shown) [Compound 83], the pIC50 in test [1] and in test [2] was 5.00 to 6.00 each time.
As to `CN1CC(C)(C)C[C@H]1COc1nc(N2CC3CCC(C2)N3)c2cc(C(F)(F)F)c(-c3ccc(F)c4sc(N)nc34)c(F)c2n1` [Compound 253], the pIC50 in test [1] and in test [2] was 5.00 to 6.00 each time.
With `CN1CC(F)(F)C[C@H]1COc1nc(NCCN)c2cc(Cl)c(-c3ccc(F)c4sc(N)nc34)c(F)c2n1` [Compound 136], the pIC50 in test [1] and in test [2] was 4.52 to 5.00 in each case.
For the compound `N#Cc1cc2c(N3CCNCC3)ncnc2c(F)c1-c1ccc(F)c2sc(N)nc12` [Compound 94, 7-(2-amino-7-fluorobenzo[d]thiazol-4-yl)-8-fluoro-4-(piperazin-1-yl)quinazoline-6-carbonitrile], the pIC50 in test [1] and in test [2] was 4.52 to 5.00 in each case.
Turning to `Nc1nc2c(-c3c(-c4ccoc4)cc4c(N5CC6CCC(C5)N6)nc(OCC56CCCN5CCC6)nc4c3F)ccc(F)c2s1` [Compound 159], the pIC50 was 6.00 to 7.00 in test [1] and 4.52 to 5.00 in test [2].
`CN(c1nc(OCC23CCCN2CCC3)nc2c(F)c(-c3ccc(F)c4sc(N)nc34)c(C(F)(F)F)cc12)[C@H]1CC[C@@H](N)CC1` (atropisomer, axis not shown) [Compound 294]: the pIC50 in test [1] was 6.00 to 7.00; in test [2], 5.00 to 6.00.
Turning to `CN(c1nc(OCC23CCCN2CCC3)nc2c(F)c(-c3ccc(F)c4sc(N)nc34)c(C(F)(F)F)cc12)[C@H]1C[C@@H](N)C1` (atropisomer, axis not shown) [Compound 250], the pIC50 in test [1] and in test [2] was 6.00 to 7.00 throughout.
Take `CN1CCC[C@H]1COc1nc(NCCN)c2cc(Cl)c(-c3cccc4nc(N)sc34)c(F)c2n1` [Compound 100]: the pIC50 in test [1] and in test [2] was 4.52 to 5.00 throughout.
As to `CN1CCC(c2nc(NC3CNC3)c3cc(Cl)c(-c4ccc(F)c5sc(N)nc45)c(F)c3n2)CC1` [Compound 102], the pIC50 in test [1] and in test [2] was 4.52 to 5.00 in each case.
As to `NCC(=O)N1C2CCC1CN(c1nc(OC[C@@]34CCCN3C[C@H](F)C4)nc3c(F)c(-c4ccc(F)c5sc(N)nc45)c(C(F)(F)F)cc13)C2` [Compound 272], the results for the pIC50 in test [1] and in test [2] were 6.00 to 7.00 and 5.00 to 6.00, respectively.
With `CN1CCC[C@H]1COc1nc(NC2CCNCC2)c2cc(Cl)c(-c3ccc(F)c4sc(N)nc34)c(F)c2n1` [Compound 91], the pIC50 in test [1] and in test [2] was 5.00 to 6.00 in each case.
In the case of `CN1CC(F)(F)C[C@H]1COc1nc(N2CCNCC2)c2cc(C(F)(F)F)c(-c3ccc(F)c4sc(N)nc34)c(F)c2n1` [Compound 160], the pIC50 in test [1] and in test [2] was 4.52 to 5.00 throughout.
Consider `C[C@@H]1CN(c2nc(OC[C@@]34CCCN3C[C@H](F)C4)nc3c(F)c(-c4ccc(F)c5sc(N)nc45)c(OC(F)F)cc23)[C@@H](C)CN1` [Compound 282, 4-(6-(difluoromethoxy)-4-((2S,5R)-2,5-dimethylpiperazin-1-yl)-8-fluoro-2-(((2R,7aS)-2-fluorotetrahydro-1H-pyrrolizin-7a(5H)-yl)methoxy)quinazolin-7-yl)-7-fluorobenzo[d]thiazol-2-amine], for which the pIC50 in test [1] and in test [2] was 5.00 to 6.00 throughout.
With `Nc1nc2c(-c3c(C(F)(F)F)cc4c(N5CC6CC5CN6)nc(OC[C@@]56CCCN5C[C@H](F)C6)nc4c3F)ccc(F)c2s1` (some centres unmarked) [Compound 239], the pIC50 in test [1] and in test [2] was 5.00 to 6.00 in each case.
`CO[C@@H]1C[C@@H](COc2nc(N3CC4CCC(C3)N4)c3cc(C(F)(F)F)c(-c4ccc(F)c5sc(N)nc45)c(F)c3n2)N(C)C1` [Compound 284]: the pIC50 in test [1] and in test [2] was 6.00 to 7.00 each time.
Consider `CN1C[C@H](F)C[C@H]1COc1nc(N2CCNCC2)c2cc(C(F)(F)F)c(-c3ccc(F)c4sc(N)nc34)c(F)c2n1` [Compound 140], for which the pIC50 in test [1] was 5.00 to 6.00; in test [2] it was 4.52 to 5.00.
In the case of `COc1c(Cl)c(-c2ccc(F)c3sc(N)nc23)c(F)c2ncnc(N3CCNCC3)c12` [Compound 125, 4-(6-chloro-8-fluoro-5-methoxy-4-(piperazin-1-yl)quinazolin-7-yl)-7-fluorobenzo[d]thiazol-2-amine], the pIC50 in test [1] and in test [2] was 4.52 to 5.00 in each case.
Consider `CO[C@@H]1C[C@@H](COc2nc(NC3CNC3)c3cc(Cl)c(-c4ccc(F)c5sc(N)nc45)c(F)c3n2)N(C)C1` [Compound 73], for which the figures for the pIC50 in test [1] and in test [2] were 5.00 to 6.00 and 4.52 to 5.00, respectively.
In the same order, the values of `CN1CCC[C@H]1COc1nc(N(C2CC2)C2CNC2)c2cc(Cl)c(-c3ccc(F)c4sc(N)nc34)c(F)c2n1` [Compound 152] are 4.52 to 5.00 and 4.52 to 5.00.
The like results for `CN1C[C@H](F)C[C@H]1COc1nc(NC2CNC2)c2cc(-c3ccoc3)c(-c3ccc(F)c4sc(N)nc34)c(F)c2n1` [Compound 135] were, in that order, 5.00 to 6.00 and 5.00 to 6.00.
Regarding `CN(c1nc(OCC23CCCN2CC(C)(C)C3)nc2c(F)c(-c3ccc(F)c4sc(N)nc34)c(C(F)(F)F)cc12)C1CNC1` (centres unmarked) [Compound 201], the pIC50 in test [1] and in test [2] was 4.52 to 5.00 throughout.
Turning to `CN(c1nc(OCC23CCCN2CCC3)nc2c(F)c(-c3ccc(F)c4sc(N)nc34)c(C(F)(F)F)cc12)[C@H]1C[C@H]2CC[C@@H]1N2` (atropisomer, axis not shown) [Compound 271], the figures for the pIC50 in test [1] and in test [2] were 6.00 to 7.00 and 5.00 to 6.00, respectively.
Take `CN1CCC[C@H]1COc1nc(N2CCNCC2)c2cc(C(F)(F)F)c(-c3ccc(F)c4sc(N)nc34)c(F)c2n1` [Compound 115]: the pIC50 in test [1] and in test [2] was 5.00 to 6.00 in each case.
Regarding `NC(=O)N1CCN(c2nc(OCC34CCCN3CCC4)nc3c(F)c(-c4ccc(F)c5sc(N)nc45)c(Cl)cc23)CC1` [Compound 162], the pIC50 in test [1] and in test [2] was 4.52 to 5.00 each time.
With `CN(c1nc(OC[C@@]23CCCN2C[C@H](F)C3)nc2cc(-c3ccc(F)c4sc(N)nc34)c(C(F)(F)F)cc12)[C@H]1CNC[C@@H]1F` [Compound 362], the pIC50 in test [1] and in test [2] was 4.52 to 5.00 throughout.
Consider `CN1CCC[C@H]1COc1nc(N2CCNCC2)c2cc(-c3ccccc3)c(-c3ccc(F)c4sc(N)nc34)c(F)c2n1` [Compound 145], for which the pIC50 in test [1] and in test [2] was 4.52 to 5.00 each time.
For the compound `Nc1nc2c(-c3c(C(F)(F)F)cc4c(N5CCNCC5)nc(OCC56CCCN5CCC6)nc4c3F)ccc(F)c2s1` [Compound 123], the pIC50 in test [1] and in test [2] was 5.00 to 6.00 throughout.
As for `Cc1cc2c(N3CCNCC3)nc(OC[C@@H]3CCCN3C)nc2c(F)c1-c1ccc(F)c2sc(N)nc12` [Compound 205], the pIC50 in test [1] and in test [2] was 4.52 to 5.00 each time.
